Legend:
[1] = Release of letrozole from drug-loaded BPBPA-Ca in FaSSGF; assay type: physicochemical
Method: (§1) LET release curve from BPBPA-Ca. The release curve of LET from BPBPA-Ca was determined in FaSSGF. About 100 mL of FaSSGF were placed in a 250-mL beaker and left in constant stirring at 37° C. (150 rpm). To record the first time point (0 h), an aliquot (1 mL) was taken out before adding the drug-loaded BPBPA-Ca. Subsequently, about 20 mg of powdered drug-loaded BPBPA-Ca (experimental) were placed into the FaSSGF solution. After each time point (0, 1, 3, 6, 24, 48, and 72 h), an aliquot (1 mL) was taken out and diluted in a 5 mL volumetric flask. Once the experiment was completed, the absorbance was measured at 238 nm to determine the amount (%) of LET release from the BPBPA-Ca. The release curve of LET (control) in FaSSGF was determined for comparison. This experiment was accomplished in duplicate.
Furthermore, the release of LET from the drug-loaded BPBPA-Ca was investigated in FaSSGF (pH=1.60) at 37° C. The LET released from BPBPA-Ca was quantified by measuring the increase in the LET concentration over time of the supernatant at the lambda max (λmax=238 nm). It was noticed that the drug-loaded BPBPA-Ca reaches a maximum release of LET ([…]) at 24 h (FIG. 91B). […] These findings confirm that BPBPA-Ca can be degraded in acidic conditions and release its cargo (LET) in a controlled and pH-dependent manner.
as §1, with “Release experiment.” for “LET release curve from BPBPA-Ca.”, “performed” for “accomplished”, “duplicate. FIG. 150 depicts the release curve of LET from the BPBPA-Ca channels.” for “duplicate.”

[2] = system: human breast cancer MDA-MB-231 cell line; settings: previously reported; cited from earlier work
[3] = system: human breast cancer MCF-7 cell line; test: AlamarBlue cytotoxicity, BPBPA series, MCF-7; assay type: cell-based
Method: Cell culture methods. MCF-7, MDA-MB-231, and hFOB 1.19 cell lines were incubated employing DMEM (37° C.) and DMEM: F12 (34° C.) medium, respectively, in a 5% CO2. Cell lines were supplemented using 10% FBS and 1% Pen-Strep and medium exchange was performed twice a week. Cell passages were carried out at 80% confluency.
Cell-based assays. Cell lines were seeded in 96 well plates at a density of 5×10^3 cells/mL, cells were incubated for 24 h before treatment. Both cell lines were treated with 100 μL of BPBPA (0-400 μM), LET (0-200 μM), unloaded and loaded nano-Ca@BPBPA (0-50 μM). All cell-based assays were performed for 24, 48, and 72 h of treatment. Control groups were treated with media (DMEM or DMEM: F12) supplemented with 1% Pen-Strep. Then, the media was removed and replaced with 100 μL of 10% AlamarBlue® solution. The 96 well plates were incubated for 4 h before measurements. Then, the fluorescence was assessed at 560 nm of excitation and λmax 590 nm of emission. The cell viability (%) was evaluated by contrasting the percentage of live cells of the control groups with the cells treated with BPBPA, LET, unloaded and loaded nano-Ca@BPBPA. The half-maximal inhibitory concentration (IC50) was determined for BPBPA and letrozole employing the dose-response curves (% cell live vs. concentration). The relative cell live (% RCL) was assessed for the unloaded and loaded nano-Ca@BPBPA, utilizing LET as a control group. The IC50 and % RCL were plotted using the GraphPad Prism software vs. 9.3.0.
The cytotoxicity of BPBPA (control), LET (control), nano-Ca@BPBPA (control), and drug-loaded nano-Ca@BPBPA (experimental) was investigated employing the human breast cancer, MCF-7 and MDA-MB-231, and the human osteoblast, hFOB 1.19, cell lines. The human MCF-7 cell line represents an ER-positive breast cancer model with estrogen, progesterone, and glucocorticoid receptors.^1 While, the human MDA-MB-231 cells correspond to a model of ER-negative breast cancer. Both selected cancer cell lines can be implicated in the development and progress of bone metastases in patients.^40,41 The human fetal hFOB 1.19 cells represent a homogeneous osteoblast-like (non-cancerous) model commonly employed to assess osteoblast differentiation.^42 The cytotoxicity of these materials was evaluated by determining the IC50 and % RCL. […] Similar results were found for MDA-MB-231 and hFOB 1.19 cell lines treated with LET (IC50 >200 μM) at the same time points (Supporting Information).
Cell culture methods. MCF-7 and MDA-MB-231 were incubated employing DMEM media at 37° C. in 5% CO2. The hFOB 1.19 cell lines were incubated using DMEM: F12 at 34° C. in 5% CO2. Cell lines were supplemented using 10% FBS and 1% Pen-Strep. The media was exchanged twice per week. Cell passages were carried out at 80% confluency.
Seeding. Cell lines were seeded in 96 well plates at a density of […] cells/mL; cells were incubated for 24 h before each treatment.
Treatment. Cell lines were treated with 100 μL of BPBPA (0-400 μM), LET (0-200 μM), unloaded and loaded nano-Ca@BPBPA (0.5-50 μM). Control groups were treated with media (DMEM or DMEM: F12) supplemented with 1% Pen-Strep. All cell-based assays were performed after 24, 48, and 72 h of treatment and in triplicate.
AlamarBlue@assay. To determine the cell viability, the media was removed and replaced with 100 μL of 10% AlamarBlue® solution. The 96 well plates were incubated for 4 h before measurements. Then, the fluorescence was assessed at 560 nm of excitation and λmax 590 nm of emission.

## N#Cc1ccc(C(c2ccc(C#N)cc2)n2cncn2)cc1 [LET, letrozole]
[1]; FaSSGF pH 1.60, 37 °C, 1 h
  LET released (mean): 65%
[1]; FaSSGF, 3 h
  LET released (mean): 72%
[1]; FaSSGF, 6 h
  LET released (mean): 75%
[1]; FaSSGF, 24 h
  LET released (mean): 93%
[1]; FaSSGF, 48 h
  LET released (mean): 94%
[1]; FaSSGF, 72 h
  LET released (mean): 94%
[2]
  IC50: > 200 µM
[3]; 0.5 μM, 24 h
  % RCL: ~100%
[3]; 0.5 μM, 48 h
  % RCL: ~100%
[3]; 0.5 μM, 72 h
  % RCL: 88±5%
[3]; 1.6 μM, 72 h
  % RCL: 81%
[3]; 3.1 μM, 24 h
  % RCL: 99±2%
[3]; 3.1 μM, 48 h
  % RCL: 86±3%
[3]; 3.1 μM, 72 h
  % RCL: 78±1%
[3]; 6.3 μM, 24 h
  % RCL: 99±1%
[3]; 6.3 μM, 72 h
  % RCL: 75±3%
[3]; 12.5 μM, 72 h
  % RCL: 70±1%
[3]; Homo sapiens, MCF7, 72 h
  IC50: ~20 µM

Reference: patent publication US20250296942A1, “Phosphonate-Based Coordination Complexes and Methods of Preparation and Use Thereof” (University of Puerto Rico, priority 2021, published 2025)
